The record followed here is publication PMC8694143 (Microbiology Spectrum, 2021).

The assay deals with MRSA ATCC 33592, ATCC 1683 and S. pseudintermedius SPC002. In words: Bactericidal activity time course, short intervals. Type of assay: cell-based, Staphylococcus aureus; Staphylococcus pseudintermedius. Particulars: 2× MIC, MH broth, 37°C. On the procedure: Time-dependent inhibition of pathogens was measured using standing bacterial cultures treated with 2× MIC. Overnight cultures were diluted to 10^4 or 10^7 CFU/mL in 2 mL of MH broth supplemented with the appropriate peptide concentration or sterile water as a control. Standing cultures were then incubated at 37°C and 100 μL aliquots were removed at specified time intervals. For the panel of 7 MRSA strains, treatment intervals of 30 min, 4 h, 8 h, and 24 h were used. For MRSA ATCC 33592, ATCC 1683, and S. pseudintermedius SPC002, shorter intervals included 5, 30, 60, 120, 240, and 360 min. The 100-μL aliquots were plated using serial dilutions as necessary on LB agar, and CFU were counted as a measure of bacterial viability after 24 h. To normalize cell viability data, surviving cells in CFU/mL were compared to the initial bacterial inoculum of each strain and then expressed as a percentage of that concentration. All experiments were performed in triplicate with values reported as the mean with standard deviations. Statistical differences in the observed viability of bacteria treated with STIP3-29 were analyzed using a paired two-tailed Student’s t test comparing the pretreatment (0 h) viability to those observed at posttreatment time points using Stata v17.0 software.

No end group written: not given here.

Take TVGGLVKWILKTVKKFA-NH2 [STIP3-29]: the “Viability within 5 min of treatment” value (5 min, all three strains, normalized to the starting cell count) is listed as ≤ 40%. Moreover, for the setting “2 h, detection limit 10 CFU/mL”, the “Recovery of viable bacteria after 2 h of treatment” value is recorded as “inability to recover viable bacteria”.
